Entries after “also recorded” stand apart in the source; their conditions may differ. Structures can show the parent of a compound that is named as a salt. Where two headings read alike, the source gives them in different places.
Experiments:
neddylation of cullin 3 = test: Western blotting of neddylated and un-neddylated cullin 3 in THLE2 liver cell line; assay type: cell-based
Description: (§1) A key function of cullin neddylation is to control E3 ubiquitin ligase activity of the cullin complex, which in turn regulates protein turnover in cells. DI-591 (Example 58) was evaluated for its effect on neddylation of 5 different cullins in the THLE2 liver cell line with the data shown in FIG. 1. Immortalized THLE2 liver cell line was treated by a dose-range of DCN1 inhibitor DI-591 or a dose-range of MLN4924 for 24 h. The protein levels of neddylated- and un-neddylated-cullin family proteins and several well-known substrates of cullins were examined by western blotting analysis. GAPDH was used as a loading control. […] Immunohistochemical data confirmed the increased NRF2 protein by Example 58 in liver cells.
(§2) DI-591 (Example 58) was further compared to MLN4924 for their ability to inhibit neddylation of cullin 1 and cullin 3 in the THLE2 liver cell line with the data shown in FIG. 2. THLE2 liver cell line was treated by DI-591 at 10 μM or MLN4924 at 0.3 μM for 5 minutes (5m), 30 minutes (30 m), 2 hours (2h) and 24 hours (24h). […] In comparison, MLN4924 inhibits the neddylation of both cullin 1 and 3.
(§3) Immortalized liver THLE2 (ATCC® CRL-2706™) cell lines was purchased from the ATCC (Rockville, MD). The cell line was maintained in BEGM Bronchial Epithelial Cell Growth Medium from Lonza/Clonetics Corporation (CC3170, Walkersville, MD) supplemented with 10% FBS and pen-strep at 37° C. in a humidified incubator with 5% CO2. Esophageal cancer KYSE140 cell line (ACC 348) was purchased from DSMZ (Braunschweig, Germany). The cell line was maintained RPMI1640 supplemented with 10% FBS and pen-strep at 37° C. in a humidified incubator with 5% CO2.
(§4) Treated cells were lysed by RIPA buffer supplemented with protease inhibitor. The expression level of indicated proteins was examined by western blotting analysis. GAPDH was used as a loading control. Antibodies were purchased: Cullin 1 (sc-11384), Cullin2 (sc-10781), Cullin5 (sc-13014) and Cullin7 (sc-134565) from Santa Cruz Biotech. […]

[1] = test system: mRNA of NRF2, NQ01 and HO-1; test: qRT-PCR of NRF2 and NRF2-regulated genes in THLE2 liver cell line; assay type: cell-based; details: 10 μM, different time points
Excerpt: FIG. 4 provides qRT-PCR analysis of mRNA levels of NRF2 and NRF2-regulated genes in the THLE2 liver cell line. […] The relative mRNA levels of NRF2, NQ01 and HO-1 were examined by quantitative real-time RT-PCR assay.

neddylation of cullin 1 = test: Western blotting of neddylated and un-neddylated cullin 1 in THLE2 liver cell line; assay type: cell-based; details: DI-591 at 10 μM or MLN4924 at 0.3 μM, 5 minutes to 24 hours
Description: as §2, §3, §4

NRF2 = test: Western blotting of NRF2 and NRF2-regulated proteins in THLE2 liver cell line; assay type: cell-based; details: for accumulation of NRF2 and NQ01 protein / abundance of NRF2 protein (cullin 3 substrate): THLE2 liver cell line; for accumulation of NRF2 and NQ01 protein: 10 μM, different time points; for abundance of NRF2 protein (cullin 3 substrate): dose-range, 24 h, western blotting
Description: as §1
NRF2 is a transcriptional factor and a master regulator of antioxidant responses, regulating numerous detoxifying and antioxidant genes, such as the phase II detoxification enzymes heme oxygenase (HO1) and NAD(P)H:quinone oxidoreductase-1 (NQ01) (36). DI-591 (Example 58) was compared to dimethyl fumarate (DMF) for their effect on NRF2 and NQ01 protein levels in the THLE2 liver cell line with DI-591DD included as a control with the data shown in FIG. 3. THLE2 liver cell line was treated by DI-591 at 10 μM, DI-591DD at 10 μM or DMF at 10 μM for different time points.
as §3
(§5) Treated cells were lysed by RIPA buffer supplemented with protease inhibitor. The expression level of indicated proteins was examined by western blotting analysis. GAPDH was used as a loading control. Antibodies were purchased: Cullin 1 (sc-11384), Cullin2 (sc-10781), Cullin5 (sc-13014) and Cullin7 (sc-134565) from Santa Cruz Biotech. (Santa Cruz, CA); Cullin 4A (PA5-14542), Cullin 4B (PA5-35239), Cullin9 (PA5-20277), DCN2 (DCUN1D2, PA5-31607) and DCN3 (DCUN1D3, PA5-44000) from ThermoFisher Scientific (Wayne, MI); Cullin 3 (2759), NRF2 (12721), HO-1 (70081), NQ01 (3187), Cyclin E (4129), Bim (2819), Keap1 (8047) and UBC12 (4913) from Cell Signaling Technology (Boston, MA); DCN1 (GWB-E3D700) from GenWay Biotech (San Diego, CA). Results are representative of three independent experiments.

Cyclin E, BimEL, CDT1 = test: Western blotting of Cul-1 and Cul-4A substrates in THLE2 liver cell line; assay type: cell-based; details: dose-range, 24 h
Description: as §1, §3, §5

DCN1 [2] = target: T1, DCN1 (Homo sapiens (Human), UniProt Q96GG9); test: FP protein saturation experiment (Kd of fluorescent probe); details: fluorescein-labeled probe; read-out: Binding affinity to DCN1, Kd
Description: The Fluorescence Polarization (FP) competitive binding assays were performed to accurately determine the binding affinities of our DCN1 inhibitors. A novel FAM labeled fluorescent probe compound (46) was designed and synthesized based on one of our potent small molecule DCN1 inhibitors. […] Serial dilutions of proteins were mixed with 46 to a final volume of 200 μl in the assay buffer (100 mM phosphate buffer, pH=6.5, with 0.02% Tween-20 and 2% DMSO). Final probe concentration was 5 nM for both assays. Plates were incubated at room temperature for 30 minutes with gentle shaking to assure equilibrium. FP values in millipolarization units (mP) were measured using the Infinite M-1000 plate reader (Tecan U.S., Research Triangle Park, NC) in Microfluor 1 96-well, black, round-bottom plates (Thermo Scientific, Waltham, MA) at an excitation wavelength of 485 nm and an emission wavelength of 530 nm.
Human DCN1 (residues 58-259) were cloned into a pDEST17 plasmid containing an N-terminal His6 tag. DCN2 (residues 62-259), DCN3 (residues 86-304), DCN4 (residues 102-292) and DCN5 (residues 47-237) were cloned into an N-terminal His6-TEV expression vector. Pure proteins were derived from the same expression and purification protocols. […]

DCN1 [3] = target: T1, DCN1; test: Competitive FP binding assay
Summary of the method: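 FP competition with DCN1 in 100 mM phosphate pH 6.5, 0.02% Tween-20, 2% DMSO, probe 5 nM final. Equilibrated 30 min at room temperature with shaking. DCN1 was His6-tagged (uncleaved), expressed in E. coli Rosetta2 and purified by Ni-NTA and gel filtration.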

[4] = THLE2, DI-591 at 10 μM or MLN4924 at 0.3 μM, 5 minutes to 24 hours
[5] = read-out: Binding affinity to DCN1 (IC50 (nM))

T1 sequence (Q96GG9 58-259): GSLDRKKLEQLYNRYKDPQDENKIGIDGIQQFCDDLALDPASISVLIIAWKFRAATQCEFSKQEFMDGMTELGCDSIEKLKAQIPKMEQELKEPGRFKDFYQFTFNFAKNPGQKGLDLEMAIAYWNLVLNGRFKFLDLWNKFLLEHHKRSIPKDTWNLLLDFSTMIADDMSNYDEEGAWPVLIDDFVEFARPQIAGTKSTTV

Structure (SMILES) | accumulation of NRF2 and NQ01 protein (NRF2) | abundance of NRF2 protein (cullin 3 substrate) (NRF2) | protein levels of Cyclin E, BimEL and CDT1 (substrates of Cul-1 and Cul-4A) (Cyclin E, BimEL, CDT1) | IC50 (DCN1 [3]; [5]) | other results
CCC(=O)N[C@@H](Cc1nc2ccc(C(C)C)cc2s1)C(=O)N[C@H](CNC(=O)CCN1CCOCC1)C1CCCCC1 [Example 58, (S)—N—((S)-1-cyclohexyl-2-(3-morpholinopropanamido)ethyl)-3-(6-isopropylbenzo[d]thiazol-2-yl)-2-propionamidopropanamide] | stimulate the accumulation | induces upregulation; also recorded: selectively increased | no or minimal effect |  | neddylation of cullin 3 (neddylation of cullin 3; [4]): rapidly inhibits; neddylation of cullin 3 (neddylation of cullin 3; THLE2 liver cell line, dose-range, 24 h): selectively and dose-dependently inhibits; mRNA level of NRF2 [1]: no effect; mRNA levels of NQ01 and HO1 (NRF2-regulated genes) [1]: upregulates; also recorded: clearly increases; neddylation of cullin 1 (neddylation of cullin 1): little effect; NRF2 protein, immunohistochemical data (NRF2; liver cells): increased
COC(=O)/C=C/C(=O)OC [Dimethyl fumarate, dimethyl fumarate, reference compound] | stimulates the accumulation |  |  |  | accumulation of NRF2 and NQ01 protein (NRF2; listed as dimethyl fumarate): stimulate the accumulation
CCC(=O)N[C@@H](Cc1nc2ccc(C(C)C)cc2s1)C(=O)N[C@H](CNC(=O)C1CCN(CCOCCOCCOCCNC(=O)c2ccc3c(c2)C(=O)OC32c3ccc(O)cc3Oc3cc(O)ccc32)CC1)C1CCCCC1 [Example 127, N—((S)-2-cyclohexyl-2-((S)-3-(6-isopropylbenzo[d]thiazol-2-yl)-2-propionamidopropanamido)ethyl)-1-(1-(3′,6′-dihydroxy-3-oxo-3H-spiro [isobenzofuran-1,9′-xanthen]-5-yl)-1-oxo-5,8,11-trioxa-2-azatridecan-13-yl)piperidine-4-carboxamide] |  |  |  |  | Kd (DCN1 [2]): 0.0219 µM
NS(=O)(=O)OC[C@@H]1C[C@@H](n2ccc3c(N[C@H]4CCc5ccccc54)ncnc32)C[C@@H]1O [MLN4924, reference compound] |  | induces accumulation | induces accumulation |  | neddylation of cullin 3 (neddylation of cullin 3; [4]): inhibits; neddylation of cullin 1 (neddylation of cullin 1): inhibits
CCC(=O)N[C@@H](Cc1nc(C)c(-c2ccccn2)s1)C(=O)N[C@H](CN)Cc1ccccc1 [Example 228] |  |  |  |  | IC50 (DCN1 [3]; bounds given in μM, read-out: Binding affinity to DCN1 (IC50)): > 10 µM
CCC(=O)N[C@@H](Cc1nc2ccc(C)cc2s1)C(=O)N[C@@H](CC1CCNCC1)C(=O)N[C@@H](CCCCN)C(=O)N[C@@H]1CCOc2ccccc21 [Example 178] |  |  |  | 0.596 µM | 
CCC(=O)N[C@@H](Cc1nc2ccc(C(C)C)cc2s1)C(=O)N[C@H](CNC(=O)c1ncc[nH]1)C1CCCCC1 [Example 268] |  |  |  | 1.21 µM | 
CCC(=O)N[C@H](Cc1nc2ccc(C(C)C)cc2s1)C(=O)N[C@@H](CNC(=O)CCN1CCOCC1)C1CCCCC1 [Example 123, (R)—N—((R)-1-cyclohexyl-2-(3-morpholinopropanamido)ethyl)-3-(6-isopropylbenzo[d]thiazol-2-yl)-2-propionamidopropanamide] | not | no effect | no effect |  | mRNA level of NRF2 [1]: no effect; mRNA levels of NQ01 and HO1 (NRF2-regulated genes) [1]: not
CCC(=O)N[C@@H](Cc1nc2ccc(C(F)(F)F)cc2o1)C(=O)N[C@H](C(=O)N[C@@H](CCCCN)C(=O)N[C@@H]1CCOc2ccccc21)C1CCOCC1 [Example 197] |  |  |  | 0.102 µM | 
CCC(=O)N[C@@H](Cc1nc(C)c(C(C)C)s1)C(=O)N[C@H](C(=O)N[C@@H](CCCCN)C(=O)N[C@@H]1CCOc2ccccc21)C1CCOCC1 [Example 187] |  |  |  | 0.886 µM | 

Reference: US12012467B2, “Small molecule DCN1 inhibitors and therapeutic methods using the same” (THE REGENTS OF THE UNIVERSITY OF MICHIGAN, priority 2017, dated 2024)
